Measured values taken from paper PMC5011342, “A high throughput drug screening assay to identify compounds that promote oligodendrocyte differentiation using acutely dissociated and purified oligodendrocyte precursor cells” (BMC Research Notes, 2016).
Where two headings read alike, the source gives them in different places.

Experiments:
[1] = system: acutely dissociated and purified rat OPCs; experiment: Acute OL differentiation assay (MBP expression/cell, immunofluorescent image quantification); type: cell-based
Summary of the method: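 This acute differentiation assay used purified rat OPCs from postnatal day 6–7 pups, seeded into PDL/laminin-coated 96-well plates in differentiation medium lacking PDGF and FGF. Compounds were applied in quadruplicate after a 1–2 h preincubation at 37 °C, 10 % CO2, with 0.1 % DMSO negative and 40 ng/ml T3 positive controls in eight wells. After fixation on DIV4, anti-MBP immunofluorescence images yielded MBP expression/cell.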

expanded OPCs = experiment: cells; conditions: for viability at 0.1 µM / viability at 1 µM / viability at 10 µM: Rattus norvegicus, 72 h
Summary of the method: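 Toxicity screen: compounds added at 0.1, 1 and 10 µM to PDGF-AA-expanded OPCs in 96-well plates, 3-day incubation at 37 °C, 10% CO2, then alamarBlue 1:10 for 4 h with fluorescence readout. Results set screening doses of 10/2, 2/0.4 or 0.4/0.08 µM.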

[2] = Rattus norvegicus, test compound at 0.4 uM, NCC library screen, sheet "All OLga data", relative to quetiapine, read-out: 0.4 uM (% Quet)
[3] = Rattus norvegicus, test compound at 2 uM, NCC library screen, sheet "All OLga data", relative to quetiapine, read-out: 2 uM (% Quet)
[4] = alamarBlue viability of expanded OPCs, compound at 0.1 µM, relative to DMSO control
[5] = alamarBlue viability of expanded OPCs, compound at 1 µM, relative to DMSO control
[6] = alamarBlue viability of expanded OPCs, compound at 10 µM, relative to DMSO control
[7] = read-out: 0.1 µM (% DMSO), alamarBlue viability, NCC library compound at 0.1 µM, sheet "All Tox data"
[8] = read-out: 1 µM (% DMSO), alamarBlue viability, NCC library compound at 1 µM, sheet "All Tox data"
[9] = read-out: 10 µM (% DMSO), alamarBlue viability, NCC library compound at 10 µM, sheet "All Tox data"
[10] = Rattus norvegicus, test compound at 2 uM, MBP expression relative to quetiapine, NCC library screen, sheet "All OLga data", read-out: 2 uM (% Quet)
[11] = Rattus norvegicus, test compound at 10 uM, MBP expression relative to quetiapine, NCC library screen, sheet "All OLga data", read-out: 10 uM (% Quet)
[12] = Rattus norvegicus, 2 uM test compound, relative to quetiapine, sheet "All OLga data", read-out: OL differentiation, 2 uM (% Quet)
[13] = Rattus norvegicus, 10 uM test compound, relative to quetiapine, sheet "All OLga data", read-out: OL differentiation, 10 uM (% Quet)
[14] = read-out: 0.1 µM (% DMSO), alamarBlue viability of expanded OPCs, compound at 0.1 µM, sheet All Tox data
[15] = read-out: 1 µM (% DMSO), alamarBlue viability of expanded OPCs, compound at 1 µM, sheet All Tox data
[16] = read-out: 10 µM (% DMSO), alamarBlue viability of expanded OPCs, compound at 10 µM, sheet All Tox data
[17] = Rattus norvegicus, test compound at 10 uM, NCC library screen, sheet "All OLga data", relative to quetiapine, read-out: 10 uM (% Quet)

With `CCN(CC)CCOC(=O)C1(C2CCCCC2)CCCCC1` [Dicyclomine] the activation at 0.4 µM [1, 2] was -5.5%, the activation at 2 µM [1, 3] was 32.1% and the “0.1 µM (% DMSO)” value (expanded OPCs; [4]) was 99.8 % DMSO. The “1 µM (% DMSO)” value (expanded OPCs; [5]) was 87.7 % DMSO and the “10 µM (% DMSO)” value (expanded OPCs; [6]) was 52.8 % DMSO.

With `COc1ccc([C@@H]2Sc3ccccc3N(CCN(C)C)C(=O)[C@@H]2OC(C)=O)cc1` [Diltiazem] the activation at 0.4 µM [1, 2] was -12.2%, the activation at 2 µM [1, 3] was -2.4% and the “0.1 µM (% DMSO)” value (expanded OPCs; [4]) was 81.4 % DMSO. The “1 µM (% DMSO)” value (expanded OPCs; [5]) was 67.2 % DMSO and the “10 µM (% DMSO)” value (expanded OPCs; [6]) was 48.7 % DMSO.

With `NCCc1ccc(O)c(O)c1` [Dopamine] the activation at 0.4 µM [1, 2] was 3.4%, the activation at 2 µM [1, 3] was -24.9% and the viability at 0.1 µM (expanded OPCs; [7]) was 87%. The viability at 1 µM (expanded OPCs; [8]) was 74.7% and the viability at 10 µM (expanded OPCs; [9]) was 51.7%.

For `OC(Cn1cncn1)(Cn1cncn1)c1ccc(F)cc1F` [Fluconazole], the activation at 2 µM [1, 10] was 0.9%, the activation at 10 µM [1, 11] was -44.2% and the “0.1 µM (% DMSO)” value (expanded OPCs; [4]) was 89.6 % DMSO. The “1 µM (% DMSO)” value (expanded OPCs; [5]) was 88.1 % DMSO and the “10 µM (% DMSO)” value (expanded OPCs; [6]) was 92.1 % DMSO.

In the case of `CC1(C)S[C@@H]2[C@H](/N=C/N3CCCCCC3)C(=O)N2[C@H]1C(=O)O` [Amdinocillin], the activation at 2 µM [1, 12] is reported as -15.6%, the activation at 10 µM [1, 13] is reported as 5.8% and the viability at 0.1 µM (expanded OPCs; [14]) is reported as 89.7%. For the same compound, the viability at 1 µM (expanded OPCs; [15]) was 98.8% and the viability at 10 µM (expanded OPCs; [16]) was 102%.

Work on `CCN(CC)CCOC(=O)C(O)(c1ccccc1)c1ccccc1` [Benactyzine] yielded an activation at 2 µM ([1]; Rattus norvegicus, read-out: 2 uM (% Quet)) of -1.9%, an activation at 10 µM ([1]; Rattus norvegicus, read-out: 10 uM (% Quet)) of -2.1% and a viability at 0.1 µM (expanded OPCs; read-out: 0.1 µM (% DMSO)) of 100%. For the same compound, the viability at 1 µM (expanded OPCs; read-out: 1 µM (% DMSO)) was 88.2% and the viability at 10 µM (expanded OPCs; read-out: 10 µM (% DMSO)) was 90%.

`c1ccc(-c2ccc(C(c3ccccc3)n3ccnc3)cc2)cc1` (stereo not drawn) [Bifonazole, reference compound] was tested, and the activation at 0.4 µM ([1]; Rattus norvegicus, 0.4 uM test compound, relative to quetiapine, sheet "All OLga data", read-out: OL differentiation, 0.4 uM (% Quet)) was 67.3%, the activation at 2 µM [1, 12] was 105% and the EC50 ([1]; Rattus norvegicus, average EC50 for induction of OL differentiation from independent biological replicates, eight concentrations) was 1700 nM. The “hit in OL differentiation assay, MRF-TMC” value ([1]; ● = confirmed hit in this paper's assay) was “●”, the viability at 0.1 µM (expanded OPCs; [7]) was 121% and the viability at 1 µM (expanded OPCs; [8]) was 187%. The viability at 10 µM (expanded OPCs; [9]) was 11.9%.

In the case of `CN(CCO)CC(O)Cn1cnc2c1c(=O)n(C)c(=O)n2C` (stereo not drawn) [Jupal], the “2 uM (% Quet)” value ([1]; test compound at 2 uM, NCC library screen, sheet "All OLga data", relative to quetiapine) is reported as 0.8 % Quet, the “10 uM (% Quet)” value ([1]; test compound at 10 uM, NCC library screen, sheet "All OLga data", relative to quetiapine) is reported as 6.5 % Quet and the “0.1 µM (% DMSO)” value (expanded OPCs; alamarBlue viability, NCC library compound at 0.1 µM, sheet "All Tox data") is reported as 92.2 % DMSO. The “1 µM (% DMSO)” value (expanded OPCs; alamarBlue viability, NCC library compound at 1 µM, sheet "All Tox data") was 91.0 % DMSO and the “10 µM (% DMSO)” value (expanded OPCs; alamarBlue viability, NCC library compound at 10 µM, sheet "All Tox data") was 92.4 % DMSO.

With `NC(=O)c1cnccn1` [Pyrazinamide] the activation at 2 µM [1, 3] was -8.1%, the activation at 10 µM [1, 17] was -1.1% and the “0.1 µM (% DMSO)” value (expanded OPCs; [4]) was 89.2 % DMSO. The “1 µM (% DMSO)” value (expanded OPCs; [5]) was 94.5 % DMSO and the “10 µM (% DMSO)” value (expanded OPCs; [6]) was 87.7 % DMSO.

Work on `CN(C)CCOC(C)(c1ccccc1)c1ccccn1` (stereo not drawn) [Doxylamine] yielded an activation at 2 µM [1, 12] of -9.7%, an activation at 10 µM [1, 13] of 0.7% and a viability at 0.1 µM (expanded OPCs; [7]) of 96%. For the same compound, the viability at 1 µM (expanded OPCs; [8]) was 86.6% and the viability at 10 µM (expanded OPCs; [9]) was 75%.

With `O=C(C1CCCCC1)N1CC(=O)N2CCc3ccccc3C2C1` (stereo not drawn) [Praziquantel] the activation at 2 µM [1, 3] was 0.6%, the activation at 10 µM [1, 17] was -9.5% and the “0.1 µM (% DMSO)” value (expanded OPCs; [4]) was 85.2 % DMSO. The “1 µM (% DMSO)” value (expanded OPCs; [5]) was 85.1 % DMSO and the “10 µM (% DMSO)” value (expanded OPCs; [6]) was 85.6 % DMSO.

Work on `Cc1nccn1CC1CCc2c(c3ccccc3n2C)C1=O` (stereo not drawn) [Ondansetron] yielded an activation at 2 µM [1, 12] of 4.2%, an activation at 10 µM [1, 13] of -7.7% and an activation at 2 µM [1, 10] of 3%. The activation at 10 µM [1, 11] was 3.5%, the viability at 0.1 µM (expanded OPCs; [14]) was 92.9% and the viability at 1 µM (expanded OPCs; [15]) was 92.2%. The viability at 10 µM (expanded OPCs; [16]) was 102%, the “0.1 µM (% DMSO)” value (expanded OPCs; [4]) was 95.7 % DMSO and the “1 µM (% DMSO)” value (expanded OPCs; [5]) was 92.7 % DMSO. The “10 µM (% DMSO)” value (expanded OPCs; [6]) was 90.9 % DMSO.

`CC(C)C(=O)Nc1ccc([N+](=O)[O-])c(C(F)(F)F)c1` [Flutamide] was tested, and the activation at 2 µM [1, 3] was 2.7%, the activation at 10 µM [1, 17] was -38.5% and the “0.1 µM (% DMSO)” value (expanded OPCs; [4]) was 88.5 % DMSO. The “1 µM (% DMSO)” value (expanded OPCs; [5]) was 91.4 % DMSO and the “10 µM (% DMSO)” value (expanded OPCs; [6]) was 103.8 % DMSO.
